Where two headings read alike, the source gives them in different places.
Columns and labels:
PPARγ-RXRα heterodimer = target: T1, PPARγ-RXRα heterodimer (Homo sapiens, UniProt P37231); test: PPARγ-RXRα heterodimer ligand activity, luciferase reporter in PPARγ:RXRα:4ERPP/CHO-K1 cells (Test Example 3); type: cell-based; conditions: 18-48 hours, concentration for 50% of the maximum fold induction
T1 construct: expressed in transfected cells; host or cells: CHO-K1
T1 sequence (P37231 1-477 isoform P37231-2): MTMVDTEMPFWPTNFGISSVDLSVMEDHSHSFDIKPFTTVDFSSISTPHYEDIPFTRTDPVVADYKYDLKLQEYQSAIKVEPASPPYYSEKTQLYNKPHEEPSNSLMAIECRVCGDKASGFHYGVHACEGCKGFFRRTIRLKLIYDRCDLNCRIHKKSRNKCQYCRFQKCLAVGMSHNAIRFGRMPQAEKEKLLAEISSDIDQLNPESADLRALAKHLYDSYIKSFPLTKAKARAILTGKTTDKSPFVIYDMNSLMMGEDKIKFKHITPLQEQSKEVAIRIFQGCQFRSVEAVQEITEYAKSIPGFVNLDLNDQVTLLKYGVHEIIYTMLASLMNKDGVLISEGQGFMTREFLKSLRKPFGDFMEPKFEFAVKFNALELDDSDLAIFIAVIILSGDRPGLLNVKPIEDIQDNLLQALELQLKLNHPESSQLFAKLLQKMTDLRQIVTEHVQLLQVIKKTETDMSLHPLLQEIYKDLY
T1 sequence (P19793 1-462 partner): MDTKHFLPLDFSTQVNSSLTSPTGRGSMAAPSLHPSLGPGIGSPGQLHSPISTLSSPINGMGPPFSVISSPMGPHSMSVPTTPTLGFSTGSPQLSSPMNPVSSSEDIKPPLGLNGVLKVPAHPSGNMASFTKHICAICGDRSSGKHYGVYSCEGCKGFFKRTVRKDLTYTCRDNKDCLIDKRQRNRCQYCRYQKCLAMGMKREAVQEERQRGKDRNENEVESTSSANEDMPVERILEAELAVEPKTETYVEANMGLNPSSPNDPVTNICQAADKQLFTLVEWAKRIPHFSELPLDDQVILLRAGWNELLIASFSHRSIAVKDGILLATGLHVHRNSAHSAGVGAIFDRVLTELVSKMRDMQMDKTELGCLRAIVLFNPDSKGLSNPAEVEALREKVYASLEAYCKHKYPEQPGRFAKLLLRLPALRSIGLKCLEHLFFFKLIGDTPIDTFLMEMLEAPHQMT
Method: A PPARγ: RXRα: 4ERPP/CHO-K1 cells obtained in Reference Example 8a described later were cultured in HAM F12 medium (produced by Life Technologies, Inc., USA) containing 10% Fetal bovine serum (produced by Life Technologies, Inc., USA) and then inoculated to a 96-well white plate (produced by Corning Costar Corporation, USA) at the density of 2×10^4 cells/well, and cultured in a CO2 gas incubator at 37° C. overnight.
After removing the medium from 96 well white plate, 80 μl of HAM F12 medium containing 0.1% fatty acid-free bovine serum albumin (BSA) and 20 μl of test compound were added, which was cultured in a CO2 gas incubator at 37° C. for 18-48 hours. After removing the medium, 40 μl of PIKKAGENE 7.5 (produced by Wako Pure Chemical Industries, Ltd.) diluted twice with HBSS (HANKS' BALANCED SALT SOLUTION)(produced by BIO WHITTAKER Inc., USA), was added. After stirring, the luciferase activity was determined using 1420 ARVO Multilabel Counter (produced by PerkinElmer Inc., USA).
A fold induction was calculated based on the luciferase activity of each test compound by taking the luciferase activity in the non-treatment group as 1. The values of the test compound concentration and the fold induction were analyzed using PRISM (produced by GraphPad Software Inc. USA) to calculate the EC50 values, the effective concentration of a test compound for 50% of the maximum fold induction.
After a CHO-K1 cell cultured in a 150 cm^2 cell culture flask (750 ml)(produced by Corning Costar Corporation, USA) containing HAM F12 medium (produced by Life Technologies, Inc., USA) supplemented with 10% Fetal Bovine Serum (produced by Life Technologies, Inc., USA) was scraped by treating with 0.5 g/L trypsin-0.2 g/L EDTA (ethylenediaminetetraacetic acid) (produced by Life Technologies, Inc., USA), the cell was washed with PBS (phosphate-buffered saline) (produced by Life Technologies, Inc., USA), centrifuged (1000 rpm, 5 minutes), and then suspended in PBS. Subsequently, a DNA was introduced into the cell under the condition shown below using GENE PULSER (produced by Bio-Rad Laboratories, USA).
Namely, to a cuvette having a 0.4 cm gap, added were 8×10^6 cells and 10 μg of plasmid pVgRXR2-hPPARγ obtained in Reference Example 7a and 10 μg of reporter plasmid pGL3-4ERPP-TK neo obtained in Reference Example 5a, which was subjected to electroporation at the voltage of 0.25 kV under the capacitance of 960 μF. Subsequently, the cell was transferred into a HAM F12 medium containing 10% Fetal Bovine Serum and cultured for 24 hours and then the cell was scraped again and centrifuged, and then suspended in HAM F12 medium containing 10% Fetal Bovine Serum supplemented with 500 μg/ml of GENETICIN (produced by Life Technologies, Inc., USA) and 250 μg/ml of ZEOCIN (produced by Invitrogen, USA). The obtained suspension was diluted to the density of 10^4 cells/ml and inoculated to a 96-well plate (produced by Corning Costar Corporation, USA), which was cultured in a CO2 gas incubator at 37° C., whereby obtaining a GENETICIN- and ZEOCIN-resistant transformant.
Subsequently, after the transformant cell line thus obtained was cultured in a 24-well plate (produced by Corning Costar Corporation, USA), selected was a cell line in which the luciferase was expressed and induced, i.e., PPARγ:RXRα:4ERPP/CHO-K1 cell by addition of 10 μM of pioglitazone hydrochloride.

KKAY mice [1] = test: Hypoglycemic and hypolipidemic actions in mice (Test Example 1); type: in vivo; conditions: Mus musculus, po, 96 h, 0.005% in powdery diet, four days, non-treated group taken as 100%
Summary of the method: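 KKAY mice (9 to 12 weeks old, 5 per group) were fed diet containing 0.005% test compound ad libitum for four days. Plasma glucose and triglycerides from orbital venous blood were measured enzymatically, reported as % decrease relative to untreated group (100%).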

KKAY mice [2] = test: Plasma anti-arteriosclerosis index-enhancing action in mice (Test Example 2); type: in vivo; conditions: Mus musculus, po, 96 h, 0.005% in powdery diet, four days, percent increase of (HDL cholesterol/total cholesterol)x100, non-treatment group taken as 100%
Method: Test compounds were mixed in a powdery diet (CE-2, Japan Clea) at the concentration of 0.005%, and freely given to KKAY mice (9 to 12 weeks old, 5 mice per group), a model of obese and non-insulin dependent diabetes (type 2 diabetes), for four days. During this period, water was given freely. Blood was sampled from orbital venous plexus and components in plasma separated from blood were determined. Total cholesterol levels were determined by using L type Wako Cholesterol (Wako Pure Chemical Industries, Ltd.). Precipitation reagent for HDL cholesterol (Wako Pure Chemical Industries, Ltd.) was added to a part of the plasma to precipitate non-HDL lipoprotein, and cholesterol (HDL cholesterol) in the resulting supernatant was determined. The plasma anti-arteriosclerosis index [(HDL cholesterol/total cholesterol)×100] was calculated by using these cholesterol levels.
In the Table, “Plasma anti-arteriosclerosis index-enhancing action (%)” represents the percent increase (%) of plasma anti-arteriosclerosis index in the treatment group, when the plasma anti-arteriosclerosis index in the non-treatment group is taken as 100%.

[3] = rate of decrease in blood glucose level, read-out: Hypoglycemic action (%)
[4] = rate of decrease in blood triglyceride level, read-out: Hypolipidemic action (%)

SMILES	EC50 (PPARγ-RXRα heterodimer) [nM]	melting point [°C]	inhibition in vivo at 0.005 % in diet (KKAY mice [1]; [3]) [%]	inhibition in vivo at 0.005 % in diet (KKAY mice [1]; [4]) [%]	change in vivo at 0.005 % in diet (KKAY mice [2]) [%]
CC(C)c1nn(-c2ccc(C(F)(F)F)cn2)cc1CCCOc1cccc(OC(C)(C)C(=O)O)c1 [Example 28, 2-[3-{3-(3-isopropyl-1-[5-(trifluoromethyl)-2-pyridyl]-1H-pyrazol-4-yl}propoxy)phenoxy]-2-methylpropionic acid]	35	101 to 102	42	56	18
CCOc1nn(-c2ccc(C(F)(F)F)cn2)cc1CCCOc1cccc(OC(C)(C)C(=O)O)c1 [Example 29, 2-[3-(3-{3-ethoxy-1-[5-(trifluoromethyl)-2-pyridyl]-1H-pyrazol-4-yl}propoxy)phenoxy]-2-methylpropionic acid]	160	120 to 121	46	65	23
CCCc1nn(-c2ccc(C(F)(F)F)cn2)cc1CCCOc1cccc(OC(C)(C)C(=O)O)c1 [Example 41, 2-methyl-2-[3-(3-{3-propyl-1-[5-(trifluoromethyl)-2-pyridyl]-1H-pyrazol-4-yl}propoxy)phenoxy]propionic acid]	77	99 to 100	25	48	12
CCCc1nn(-c2ccc(C(F)(F)F)cn2)cc1CCCOc1c(CC(=O)O)cccc1OC [Example 259, [3-methoxy-2-(3-{3-propyl-1-[5-(trifluoromethyl)-2-pyridyl]-1H-pyrazol-4-yl}propoxy)phenyl]acetic acid]	76	122 to 123	34	70	25
O=C(O)Cc1ccccc1OCCCc1cn(-c2ccc(C(F)(F)F)cn2)nc1C1CCCCC1 [Example 302, [2-(3-{3-cyclohexyl-1-[5-(trifluoromethyl)-2-pyridinyl]-1H-pyrazol-4-yl}propoxy)phenyl]acetic acid]	37	127 to 128			24
Cn1cc(CC(=O)O)c(OCCCc2cn(-c3ccc(C(F)(F)F)cn3)nc2C2CCCCC2)n1 [Example 303, [3-(3-{3-cyclohexyl-1-[5-(trifluoromethyl)-2-pyridinyl]-1H-pyrazol-4-yl}propoxy)-1-methyl-1H-pyrazol-4-yl]acetic acid]	52	157 to 158			14

Second part, led by results:

EC50 (PPARγ-RXRα heterodimer) [nM]	melting point [°C]	SMILES	inhibition in vivo at 0.005 % in diet (KKAY mice [1]; [3]) [%]	inhibition in vivo at 0.005 % in diet (KKAY mice [1]; [4]) [%]	change in vivo at 0.005 % in diet (KKAY mice [2]) [%]
35	159 to 160	Cc1cccc(CC(=O)O)c1OCCCc1cn(-c2ccc(C(F)(F)F)cn2)nc1C(C)C [Example 315, [2-(3-{3-isopropyl-1-[5-(trifluoromethyl)-2-pyridinyl]-1H-pyrazol-4-yl}propoxy)-3-methylphenyl]acetic acid]	53	70	11
29	148 to 149	COc1cccc(CC(=O)O)c1OCCCc1cn(-c2ccc(C(C)=O)cn2)nc1C(C)C [Example 332, (2-{3-[1-(5-acetyl-2-pyridinyl)-3-isopropyl-1H-pyrazol-4-yl]propoxy}-3-methoxyphenyl)acetic acid]			11
61		CCC(CC)c1nn(-c2ccc(C(F)(F)F)cn2)cc1CCCOc1nn(CC)cc1CC(=O)O [Example 333, [1-ethyl-3-(3-{3-(1-ethylpropyl)-1-[5-(trifluoromethyl)-2-pyridinyl]-1H-pyrazol-4-yl}propoxy)-1H-pyrazol-4-yl]acetic acid]			11

Source: US20060148858A1, “1, 2-Azole derivatives with hypoglycemic and hypolipidemic activity” (priority 2002, published 2006)
